What was measured:
[1] = test system: 23 lung, breast, ovarian, colorectal, and prostate cell lines; experiment: 18 hour viability assay (ATP quantitation); assay type: cell-based; settings: Homo sapiens, 100 nM, range over 23 cell lines, read-out: cell viability relative to DMSO-negative control
[2] = test system: solid tumor xenograft panel; experiment: Xenograft pharmacodynamic analysis (immunoblot of tumor lysates); assay type: in vivo, mice; settings: 40 mg/kg, 6 hours post-dosing, high MCL-1:BCL-xL ratio tumors
Procedure: Each tumor was divided into three parts. Two parts were snap frozen in liquid nitrogen and stored at −80° C. The third part was preserved in 10% neutral buffered formalin for 24 hours then stored in 70% ethanol at ambient temperature. Whole cell lysates from one snap frozen part were prepared by disruption/homogenation at 4° C. in a 2 ml conical-end microfuge tube containing two stainless steel beads ( 5/32″, grade 25, Ball Supply Corp) and 0.4 ml lysis buffer [1% Triton X-100, 30 mM Tris pH 7.4, 1 mM EDTA and protease (complete, mini, EDTA-free, Roche) and phosphatase (PhosSTOP, Roche) cocktail inhibitors] using a Qiagen Lyser II, shaking at 30 Hz for 2 minutes. 200 μl of pre-chilled 3×RIPA (Cell Signaling Technology) containing protease and phosphatase cocktail inhibitors was added to the homogenate, rotated at 4° C. for 10 minutes, and microcentrifuged at 12 kpm for 10 minutes at 4° C. The supernatant was removed, normalized for protein content using a BCA kit (Pierce, Rockford, Ill.) and stored at −80° C. For Western blots, 5 μg of lysate were subjected to SDS-PAGE except for cleaved PARP analysis, which required loading of 0.5 μg of lysate.

CCc1cnn2c(NCc3ccc[n+]([O-])c3)cc(N3CCCC[C@H]3CCO)nc12 [SCH 727965 (Dinaciclib)] was tested, and the viability at 0.1 µM [1] was 23 to 102% and the “apoptosis (cleaved PARP) in tumors” value [2] was “induced apoptosis”.

Source: US20150051227A1, “PREDICTIVE BIOMARKER USEFUL FOR CANCER THERAPY MEDIATED BY A CDK INHIBITOR” (Merck Sharp & Dohme Corp., priority 2012, published 2015)
